Test results: patent publication US5317009A, “Anti-HIV proteins GAP 31, DAP 30 and DAP 32 and therapeutic uses thereof” (New York University, priority 1991, dated 1994)
Entries after “also recorded” stand apart in the source; their conditions may differ.

Assays:
cells [1] = tested on: cells
cells [2] = settings: literature; cited from earlier work
HIV-1 [3] = experiment: Viral core protein p24 expression in H9 cell cultures (HIV-1 replication); format: cell-based, HIV-1 (H9 cells)
Description: (§1) FIG. 3 is a graph showing the effects of GAP 31, DAP 30 and DAP 32 on HIV-1 replication, measured by viral core antigen p24 expression and HIV-RT activity. p24 production was determined by RIA and expressed in ng/ml. Viral-RT activity was determined by the incorporation of [^3 H]dTTP into TCA-precipitable products and expressed as cpm×10^3 /ml. These values in control culture (without added plant proteins) were 2219 ng/ml and 846×10^3 cpm/ml, respectively, as determined in triplicates in two independent experiments. Results are normalized to values obtained in control cultures.
(§2) The anti-HIV activities of GAP 31, DAP 30, and DAP 32 were determined by microtiter syncytia formation in infectious cell center assay (Nara, P. L. et al., Nature 332:469-70 (1988)), viral core protein p24 expression (Nara, P. L. et al., AIDS Res. Human Retroviruses 3:283-302 (1987)), and viral-associated RT activity (Hoffman, A. D. et al., Virology 147:326-35 (1985)). […]
(§3) Assays of viral core protein p24 expression and HIV-RT activity were carried out in H9 cell cultures. […] The amount of p24 was measured by RIA and expressed in terms of ng/ml. HIV-RT activity was determined by the incorporation of [^3 H] labeled thymidine with poly(rA).p(dT)12-18 as primer-template and expressed in terms of cpm/ml.

H9 cells = experiment: Cytotoxicity to uninfected H9 cells (cellular DNA and protein synthesis); format: cell-based
Description: FIG. 4 is a graph showing the cytotoxic activity of GAP 31, DAP 30 and DAP 32, measured as cellular incorporation of [^3 H] thymidine or leucine into TCA-insoluble material in pulse labeling experiments. H9 cells were seeded at 2×10^4 cells/well and cultures pulsed with 1 μCi (1 Ci=37 GBq) of label 8 hr prior to harvesting at day 4. DNA or protein synthesis were measured by scintillation counting of the incorporation of labelled precursors. Results are normalized to values obtained for controls cultures without added anti-HIV proteins. Control values for thymidine uptake was 201,000 cpm and for leucine was 61,000 cpm. Results are the average triplicate values in two independent experiments.
The cytotoxicities of the SCRIPs were measured by their effects on cellular DNA and protein syntheses in uninfected H9 cells. Target cells were grown in the absence and presence of various amounts of SCRIPs. The cultures were pulse labeled with 1 μCi of [^3 H] labeled thymidine or leucine for 8 hours prior to harvesting on day 4. Cellular incorporation of these labeled precursors into trichloroacetic acid (TCA) precipitable products was determined by scintillation counting. Cell viability was determined by trypan blue dye exclusion. Toxicity to intact animals was determined by intraperitoneal injection (i.p.) of the SCRIPs into mice. […]

CF1 mice = settings: i.p.
HIV-1 [4] = experiment: Viral-associated reverse transcriptase (HIV-RT) activity in H9 cell cultures; format: cell-based, HIV-1 (H9 cells)
Description: as §1, §2, §3

HIV-1 [5] = experiment: Syncytia formation in infectious cell center assay (HIV-1 infection); format: cell-based, HIV-1 (CEM-ss indicator cells)
Excerpt: FIG. 2 is a graph showing the effects of GAP 31, DAP 30 and DAP 32 on HIV-1 infection by inhibition of syncytia formation in an infectious cell center assay (ICC). Results represent average values of triplicates from two independent experiments. Triplicate wells of indicator cells containing the test compounds at each concentration without virus were also included for the determination of the cytotoxic and cytostatic activities of these anti-HIV proteins. Infectious cell centers (%ICC) are expressed in terms of Vn/Vo where Vn and Vo are average numbers of syncytia in the drug-treated and untreated samples respectively.
as §2
Freshly prepared indicator cells in culture medium at 5×10^4 in 100 μl were treated with 100 μl of SCRIP at various concentrations, for 90 min. […] Focal syncytium formation representing single infectious virion units was scored at day 5 by examination under an inverted microscope. […]

[6] = tested on: ribosome (rabbit reticulocyte lysate system); experiment: Ribosome-inactivating activity: cell-free translation of globin mRNA in rabbit reticulocyte lysate; format: biochemical
Description: FIG. 5 is a graph showing the ribosome-inactivating activity of GAP 31, […] and DAP 32, measured as in vitro translation of globin mRNA in a rabbit reticulocyte system. Inhibition of protein synthesis was determined by measuring incorporation of [^3 H]leucine into TCA-insoluble material as a function of drug concentration. Results are from two independent experiments each run in duplicate. Average control values for leucine incorporation without added anti-HIV protein is 65,000 cpm/μl. Results are shown as % of control plotted against concentration of the added anti-HIV protein.
Ribosome-inactivating activity was measured by cell-free protein biosynthesis in a rabbit reticulocyte lysate system. The reaction was carried out in a total volume of 25 μl containing 2 mM magnesium acetate, 80 mM potassium acetate, 2.5 mM spermidine, 34.5 mg/ml creatine phosphate, 26 mg/ml GTP, 250 mM HEPES buffer, 1 μCi of [3H] leucine and 1 μg of globin mRNA. Incubation was conducted at 37° C. for 30 min. The translation products were resolved by TLC in a solvent system of methanol/water/TCA/glacial acetic acid (30/50/10/10, V/V/W/V). The incorporation of [^3 H] labeled leucine into TCA precipitable product was measured by scintillation counting.

HIV = settings: literature; cited from earlier work

SAP-6: a SCRIP isolated from Saponaria officinalis
toxicity (cytotoxicity) in words (cells [1]): relatively toxic

trichosanthin
cytotoxicity (cells [2]): toxic; also recorded: cytotoxic side effects
Inhibition of p24 activity (expression), ID50 (HIV-1 [3]): 0.37 nM
Cytotoxicity, ID50 (H9 cells): 340 nM
In Vivo Toxicity, LD50 (range) (CF1 mice): 5 to 7 mg/kg
hepatic hyperplasia (CF1 mice; 0.1-100 mg per 100 gm body weight every three days): moderate hepatic hyperplasia
Inhibition of Reverse Transcriptase (HIV-RT activity), ID50 (HIV-1 [4]): 0.46 nM
toxicity (cytotoxicity) in words (cells [1]): toxic
Inhibition of syncytium formation, ID50 (HIV-1 [5]): 0.34 nM
Ribosome-inactivation, ID50 [6]: 3.7 nM
anti-HIV activity (HIV): reduced viral antigen expression in, and were selectively toxic to, HIV-infected cells
